These results are taken from the supplement of paper PMC11208160.
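Further: IS621 bridge recombinase in Escherichia coli cells against a fixed T5 target plasmid.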

This series is described as follows: recombinant UMI read abundance after kanamycin selection (control-corrected) (log10(CPM+1)); higher = more efficient recombination; extreme values may be limits of the assay; sequences stand for … in AGTGCAGAGAAAATCGGCCAGTTTTCTCTGCCTGCAGTCCGCATGCCGTGGGACCCCTTGGGTTCTAACCTGTTGCCTAGATTTATGCAGCGGACTGCCTTTCTCCCAAAGTGATAAACCGG…AGGTTGGTTTCACT; site = the 11-nt donor. The gist of the method:
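Under IPTG (0.07 mM) plus kanamycin, or without selection, Escherichia coli carrying a UMI-tagged donor and donor-binding-loop pair library and a target plasmid for the IS621 bridge recombinase were plated in two replicates. Recombinant UMIs were PCR-amplified across the donor–target junction and sequenced. Counts were converted to CPM, averaged over replicates, scaled by control-derived factors and reported as log10(CPM+1).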
In the case of “CCAGGTGCATGGACCGGTTTTCCCGGTAATCCGTATTTGAT (site CGAGGTGCTAT)”, the “recombinant UMI read abundance (log10)” value amounted to 0.0036.

Regarding “CCAGGTGCATGGACCGGTTTTCCCGGTAATCCGTATTTGAT (site CTAGGTGCTAT)”, the “recombinant UMI read abundance (log10)” value came out at 0.629.

With “CCAGGTGCATGGACCGGTTTTCCCGGTAATCCGTATTTGAT (site GCAGGTGCTAT)”, the “recombinant UMI read abundance (log10)” value worked out at 0.00654.

Turning to “CCAGGTGCATGGACCGGTTTTCCCGGTAATCCGTATTTGAT (site TCAGGTGCTAT)”, the “recombinant UMI read abundance (log10)” value is 0.0184.

Regarding “CCATCATCATGGACCGGTTTTCCCGGTAATCCGTATTTGCT (site CAATCATCTAG)”, the “recombinant UMI read abundance (log10)” value worked out at 0.

In the case of “CCATCATCATGGACCGGTTTTCCCGGTAATCCGTATTTGCT (site CCATCATCTAG)”, the “recombinant UMI read abundance (log10)” value was found to be 0.

In the case of “CCATCATCATGGACCGGTTTTCCCGGTAATCCGTATTTGCT (site CGATCATCTAG)”, the “recombinant UMI read abundance (log10)” value was determined as 0.

Turning to “CCATCATCATGGACCGGTTTTCCCGGTAATCCGTATTTGCT (site CTATCATCTAG)”, the “recombinant UMI read abundance (log10)” value stood at 0.0047.

On to “CCATCATCATGGACCGGTTTTCCCGGTAATCCGTATTTGTT (site CCATCATCTAA)”, for which the “recombinant UMI read abundance (log10)” value worked out at 0.00419.

Consider “CCATCATCATGGACCGGTTTTCCCGGTAATCCGTATTTGTT (site CGATCATCTAG)”, for which the “recombinant UMI read abundance (log10)” value amounted to 0.

As to “CCATCGGCATGGACCGGTTTTCCCGGTAATCCGTATTTGTG (site CCATCGGCTCA)”, the “recombinant UMI read abundance (log10)” value amounted to 1.73.

For the sequence “CCATCTTCATGGACCGGTTTTCCCGGTAATCCGTATTTGCT (site CCATCTTCTAG)”, the “recombinant UMI read abundance (log10)” value worked out at 0.0559.

On to “CCATCTTCATGGACCGGTTTTCCCGGTAATCCGTATTTGCT (site CGATCATCTAG)”, for which the “recombinant UMI read abundance (log10)” value was determined as 0.

As to “CCATGACCATGGACCGGTTTTCCCGGTAATCCGTATTTGGA (site CCATGACCTTC)”, the “recombinant UMI read abundance (log10)” value amounted to 0.023.

Consider “CCATGCTCATGGACCGGTTTTCCCGGTAATCCGTATTTGAA (site CAATGCTCTTT)”, for which the “recombinant UMI read abundance (log10)” value stood at 0.0121.

For “CCATGCTCATGGACCGGTTTTCCCGGTAATCCGTATTTGAA (site CCATGCTCTTT)”, the “recombinant UMI read abundance (log10)” value is 0.703.

In the case of “CCATGCTCATGGACCGGTTTTCCCGGTAATCCGTATTTGAA (site CGATGCTCTTT)”, the “recombinant UMI read abundance (log10)” value turned out to be 0.0134.

In the case of “CCATGCTCATGGACCGGTTTTCCCGGTAATCCGTATTTGAA (site CTATGCTCTTT)”, the “recombinant UMI read abundance (log10)” value came to 0.015.

For “CCATGTGCATGGACCGGTTTTCCCGGTAATCCGTATTTGAT (site CCAAGTGCTAT)”, the “recombinant UMI read abundance (log10)” value is 0.00273.

Take “CCATGTGCATGGACCGGTTTTCCCGGTAATCCGTATTTGAT (site CCACGTGCTAT)”: the “recombinant UMI read abundance (log10)” value stood at 0.215.

For the sequence “CCATGTGCATGGACCGGTTTTCCCGGTAATCCGTATTTGAT (site CCAGGTGCTAT)”, the “recombinant UMI read abundance (log10)” value turned out to be 0.00344.

In the case of “CCATGTGCATGGACCGGTTTTCCCGGTAATCCGTATTTGAT (site CCATGTGCTAT)”, the “recombinant UMI read abundance (log10)” value is 1.09.

As for “CCATTAGCATGGACCGGTTTTCCCGGTAATCCGTATTTGTG (site CCATTAGCTCA)”, the “recombinant UMI read abundance (log10)” value was 0.183.

In the case of “CCATTAGCATGGACCGGTTTTCCCGGTAATCCGTATTTGTG (site CCCTTAGCTCA)”, the “recombinant UMI read abundance (log10)” value turned out to be 0.00634.

For the sequence “CCATTAGCATGGACCGGTTTTCCCGGTAATCCGTATTTGTG (site CCGTTAGCTCA)”, the “recombinant UMI read abundance (log10)” value worked out at 0.0308.

“CCATTAGCATGGACCGGTTTTCCCGGTAATCCGTATTTGTG (site CCTTTAGCTCA)”: the “recombinant UMI read abundance (log10)” value was 0.0119.

Consider “CCATTCCCATGGACCGGTTTTCCCGGTAATCCGTATTTGAC (site CCATTCCCTGT)”, for which the “recombinant UMI read abundance (log10)” value came to 0.

Consider “CCATTTGCATGGACCGGTTTTCCCGGTAATCCGTATTTGGC (site CCATTTGCTGC)”, for which the “recombinant UMI read abundance (log10)” value is 0.

For the sequence “CCCAAAGCATGGACCGGTTTTCCCGGTAATCCGTATTTGAT (site CCAAAAGCTAT)”, the “recombinant UMI read abundance (log10)” value is 0.

Take “CCCAAAGCATGGACCGGTTTTCCCGGTAATCCGTATTTGAT (site CCCAAAGCTAT)”: the “recombinant UMI read abundance (log10)” value is 0.774.

On to “CCCAAAGCATGGACCGGTTTTCCCGGTAATCCGTATTTGAT (site CCGAAAGCTAT)”, for which the “recombinant UMI read abundance (log10)” value was found to be 0.

Consider “CCCAAAGCATGGACCGGTTTTCCCGGTAATCCGTATTTGAT (site CCTAAAGCTAT)”, for which the “recombinant UMI read abundance (log10)” value stood at 0.00406.

Turning to “CCCAATACATGGACCGGTTTTCCCGGTAATCCGTATTTGGC (site CCAAATACTGC)”, the “recombinant UMI read abundance (log10)” value was found to be 0.

“CCCAATACATGGACCGGTTTTCCCGGTAATCCGTATTTGGC (site CCCAATACTGC)”: the “recombinant UMI read abundance (log10)” value amounted to 0.

Consider “CCCAATACATGGACCGGTTTTCCCGGTAATCCGTATTTGGC (site CCGAATACTGC)”, for which the “recombinant UMI read abundance (log10)” value turned out to be 0.

As to “CCCAATACATGGACCGGTTTTCCCGGTAATCCGTATTTGGC (site CCTAATACTGC)”, the “recombinant UMI read abundance (log10)” value is 0.

As for “CCCACATCATGGACCGGTTTTCCCGGTAATCCGTATTTGTC (site CCCAAATCTGA)”, the “recombinant UMI read abundance (log10)” value worked out at 0.

Regarding “CCCACATCATGGACCGGTTTTCCCGGTAATCCGTATTTGTC (site CCCACATCTGA)”, the “recombinant UMI read abundance (log10)” value was found to be 0.453.

On to “CCCACATCATGGACCGGTTTTCCCGGTAATCCGTATTTGTC (site CCCAGATCTGA)”, for which the “recombinant UMI read abundance (log10)” value worked out at 0.

With “CCCACATCATGGACCGGTTTTCCCGGTAATCCGTATTTGTC (site CCCATATCTGA)”, the “recombinant UMI read abundance (log10)” value was found to be 0.

Consider “CCCATAGCATGGACCGGTTTTCCCGGTAATCCGTATTTGTC (site CCCATAACTGA)”, for which the “recombinant UMI read abundance (log10)” value is 0.433.

“CCCATAGCATGGACCGGTTTTCCCGGTAATCCGTATTTGTC (site CCCATACCTGA)”: the “recombinant UMI read abundance (log10)” value is 0.

Take “CCCATAGCATGGACCGGTTTTCCCGGTAATCCGTATTTGTC (site CCCATAGCTGA)”: the “recombinant UMI read abundance (log10)” value amounted to 1.56.

As to “CCCATAGCATGGACCGGTTTTCCCGGTAATCCGTATTTGTC (site CCCATATCTGA)”, the “recombinant UMI read abundance (log10)” value stood at 0.

Regarding “CCCATATCATGGACCGGTTTTCCCGGTAATCCGTATTTGTT (site CCCATATCTAA)”, the “recombinant UMI read abundance (log10)” value was 1.01.

In the case of “CCCATATCATGGACCGGTTTTCCCGGTAATCCGTATTTGTT (site CCCATATCTCA)”, the “recombinant UMI read abundance (log10)” value was 0.0132.

In the case of “CCCATATCATGGACCGGTTTTCCCGGTAATCCGTATTTGTT (site CCCATATCTGA)”, the “recombinant UMI read abundance (log10)” value was 0.

For “CCCATATCATGGACCGGTTTTCCCGGTAATCCGTATTTGTT (site CCCATATCTTA)”, the “recombinant UMI read abundance (log10)” value amounted to 0.

Turning to “CCCATCTCATGGACCGGTTTTCCCGGTAATCCGTATTTGGG (site CCCATCTCTCC)”, the “recombinant UMI read abundance (log10)” value was found to be 0.

With “CCCATCTCATGGACCGGTTTTCCCGGTAATCCGTATTTGGG (site CCCCTCTCTCC)”, the “recombinant UMI read abundance (log10)” value is 0.078.

For the sequence “CCCATCTCATGGACCGGTTTTCCCGGTAATCCGTATTTGGG (site CCCGTCTCTCC)”, the “recombinant UMI read abundance (log10)” value worked out at 0.00519.

“CCCATCTCATGGACCGGTTTTCCCGGTAATCCGTATTTGGG (site CCCTTCTCTCC)”: the “recombinant UMI read abundance (log10)” value was 0.0111.
